Assays:
[1] = Sensory evaluation of aqueous solution I containing (E)-2-nonenal 1 ppb: off-flavor intensity and masking component intensity; settings: (E)-2-nonenal 1 ppb, average score 0-4
Summary of the method: (§1)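 Eight trained panelists tasted water solutions of the off-flavor compounds spiked with nootkatone. Masking-agent taste was scored absolutely from 0 (not sensed) to 4 (strong). Off-flavor was scored relatively, anchored at 4 for the solution without masker and 0 for ion-exchanged water.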

[2] = Overall conclusion of the sensory evaluation across mayonnaises I and II
Method: (§2) To commercially available mayonnaise (“Kewpie Mayonnaise” manufactured by Kewpie Corporation), each degradation component was added to prepare degradation component-added mayonnaises I and II at the concentrations listed in Table 20. To these degradation component-added mayonnaises, oleic acid was added at the concentrations listed in Table 21 to confirm the intensity of the off-flavor (masking effect) and the intensity of the masking components (impact on the flavor of the mayonnaise itself) for each sample.
(§3) Six experienced panelists were selected to conduct a sensory evaluation similar to that of Example 1.

[3] = Sensory evaluation of degradation component-added mayonnaise I (1-octen-3-ol 200 ppb); settings: average panel score
Method: as §2, §3

[4] = Overall conclusion of the sensory evaluation across aqueous solutions I to VI
Summary of the method: as §1

[5] = Sensory evaluation of aqueous solution V containing 1-octen-3-ol 10 ppb: off-flavor intensity and masking component intensity; settings: 1-octen-3-ol 10 ppb, average score 0-4
Summary of the method: as §1

[6] = Sensory evaluation of aqueous solution III containing 1-octen-3-one 1 ppb: off-flavor intensity and masking component intensity; settings: 1-octen-3-one 1 ppb, average score 0-4
Summary of the method: as §1

[7] = Sensory evaluation of aqueous solution II containing (E)-2-octenal 10 ppb: off-flavor intensity and masking component intensity; settings: (E)-2-octenal 10 ppb, average score 0-4
Summary of the method: as §1

[8] = Sensory evaluation of aqueous solution VI containing 1,5-octadien-3-ol 10 ppb: off-flavor intensity and masking component intensity; settings: aqueous solution VI, 1,5-octadien-3-ol 10 ppb, average score 0-4
Summary of the method: as §1

[9] = Sensory evaluation of aqueous solution IV containing 1,5-octadien-3-one 100 ppt: off-flavor intensity and masking component intensity; settings: aqueous solution IV, 1,5-octadien-3-one 100 ppt, average score 0-4
Summary of the method: as §1

For `CCCCCCCC/C=C\CCCCCCCC(=O)O` [Oleic Acid, oleic acid], the “Off-Flavor Intensity” value ([1]; 1 ppm added) was 1.8 points, the “Off-Flavor Intensity” value ([1]; 5 ppm added) was 1.4 points and the “Off-Flavor Intensity” value ([1]; 10 ppb added) was 3.5 points. For the same molecule, the “Off-Flavor Intensity” value ([1]; 10 ppm added) was 1.3 points, the “Off-Flavor Intensity” value ([1]; 50 ppb added) was 3.1 points and the “Off-Flavor Intensity” value ([1]; 100 ppb added) was 2.8 points. For the same molecule, the “Off-Flavor Intensity” value ([1]; 500 ppb added) was 2.4 points, the “concentration that masks the off-flavor and does not affect the flavor of the mayonnaise itself, lower limit” value [2] was at least 500 ppb and the “concentration that masks the off-flavor and does not affect the flavor of the mayonnaise itself, upper limit” value [2] was at most 100 ppm. For the same molecule, the “Masking Component Intensity” value ([3]; 1 ppm added) was 0.3, the “Off-Flavor Intensity” value ([3]; 1 ppm added) was 1.8 and the “Masking Component Intensity” value ([3]; 5 ppm added) was 0.7. For the same molecule, the “Off-Flavor Intensity” value ([3]; 5 ppm added) was 1.7, the “Masking Component Intensity” value ([3]; 10 ppm added) was 0.8 and the “Off-Flavor Intensity” value ([3]; 10 ppm added) was 1.2. For the same molecule, the “Masking Component Intensity” value ([3]; 50 ppm added) was 1.7, the “Off-Flavor Intensity” value ([3]; 50 ppm added) was 0.8 and the “Masking Component Intensity” value ([3]; 100 ppb added) was 0.0. The “Off-Flavor Intensity” value ([3]; 100 ppb added) was 3.3, the “Masking Component Intensity” value ([3]; 100 ppm added) was 2.2 and the “Off-Flavor Intensity” value ([3]; 100 ppm added) was 0.5. The “Masking Component Intensity” value ([3]; 500 ppb added) was 0.2, the “Off-Flavor Intensity” value ([3]; 500 ppb added) was 2.5 and the “concentration that masks the off-flavor and does not affect the flavor of the food and/or beverage itself, lower limit” value [4] was at least 10 ppb. For the same molecule, the “concentration that masks the off-flavor and does not affect the flavor of the food and/or beverage itself, upper limit” value [4] was at most 10 ppm, the “Off-Flavor Intensity” value ([5]; 1 ppm added) was 1.9 points and the “Off-Flavor Intensity” value ([5]; 5 ppm added) was 1.8 points. The “Off-Flavor Intensity” value ([5]; 10 ppb added) was 3.4 points, the “Off-Flavor Intensity” value ([5]; 10 ppm added) was 1.1 points and the “Off-Flavor Intensity” value ([5]; 50 ppb added) was 2.6 points. For the same molecule, the “Off-Flavor Intensity” value ([5]; 100 ppb added) was 2.9 points, the “Off-Flavor Intensity” value ([5]; 500 ppb added) was 2.3 points and the “Off-Flavor Intensity” value ([6]; 1 ppm added) was 2.8 points. The “Off-Flavor Intensity” value ([6]; 5 ppm added) was 2.4 points, the “Off-Flavor Intensity” value ([6]; 10 ppb added) was 3.5 points and the “Off-Flavor Intensity” value ([6]; 10 ppm added) was 1.9 points. For the same molecule, the “Off-Flavor Intensity” value ([6]; 50 ppb added) was 3.4 points, the “Off-Flavor Intensity” value ([6]; 100 ppb added) was 3.3 points and the “Off-Flavor Intensity” value ([6]; 500 ppb added) was 2.5 points. For the same molecule, the “Off-Flavor Intensity” value ([7]; 1 ppm added) was 1.6 points, the “Off-Flavor Intensity” value ([7]; 5 ppm added) was 1.1 points and the “Off-Flavor Intensity” value ([7]; 10 ppb added) was 2.8 points. The “Off-Flavor Intensity” value ([7]; 10 ppm added) was 1.1 points, the “Off-Flavor Intensity” value ([7]; 50 ppb added) was 2.5 points and the “Off-Flavor Intensity” value ([7]; 100 ppb added) was 1.9 points. The “Off-Flavor Intensity” value ([7]; 500 ppb added) was 1.5 points, the “Off-Flavor Intensity” value ([8]; 1 ppm added) was 1.3 points and the “Off-Flavor Intensity” value ([8]; 5 ppm added) was 1.5 points. The “Off-Flavor Intensity” value ([8]; 10 ppb added) was 2.6 points, the “Off-Flavor Intensity” value ([8]; 10 ppm added) was 1.3 points and the “Off-Flavor Intensity” value ([8]; 50 ppb added) was 2.4 points. The “Off-Flavor Intensity” value ([8]; 100 ppb added) was 1.9 points, the “Off-Flavor Intensity” value ([8]; 500 ppb added) was 1.6 points and the “Off-Flavor Intensity” value ([9]; 1 ppm added) was 2.0 points. For the same molecule, the “Off-Flavor Intensity” value ([9]; 5 ppm added) was 1.9 points, the “Off-Flavor Intensity” value ([9]; 10 ppb added) was 3.4 points and the “Off-Flavor Intensity” value ([9]; 10 ppm added) was 1.5 points. The “Off-Flavor Intensity” value ([9]; 50 ppb added) was 3.3 points, the “Off-Flavor Intensity” value ([9]; 100 ppb added) was 2.9 points and the “Off-Flavor Intensity” value ([9]; 500 ppb added) was 2.5 points.
